Key:
Format in all cases: in vivo
Conditions in all cases: 250 g/h, evaluated after 13 days
[1] = tested on: Setaria faberi (SETFA); test: Post-emergence herbicidal glasshouse test, percentage damage
Method in brief: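 Wheat, barley and Setaria faberi were sprayed post-emergence after 8 days' growth (24/16 °C, 14 h light, 65% humidity) with compound in acetone/water (50:50) containing 0.5% Tween 20, at the indicated rates. On wheat, compounds were also applied with cloquintocet-mexyl at 50 g/ha. Damage was scored after 13 days on a five-point scale (5=80-100% to 1=0-19%).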

[2] = tested on: Avena fatua (AVEFA); test: as above
Method in brief: (§1)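 Potted plants in standard soil; pre-emergence spray after 1 d of cultivation, post-emergence after 8 d. Dose 250 g/h from an acetone/water (50:50), 0.5% Tween 20 formulation. % damage at 13 d, scored 1–5.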

[3] = tested on: Echinochloa crus-galli (ECHCG); test: as above
Method in brief: as §1

[4] = tested on: Alopecurus myosuroides (ALOMY); test: as above
Method in brief: as §1

[5] = tested on: Lolium perenne (LOLPE); test: as above
Method in brief: as §1

[6] = tested on: Avena fatua (AVEFA); test: Pre-emergence herbicidal glasshouse test, percentage damage
Method in brief: as §1

[7] = tested on: Setaria faberi (SETFA); test: as above
Method in brief: as §1

[8] = tested on: Echinochloa crus-galli (ECHCG); test: as above
Method in brief: as §1

[9] = tested on: Alopecurus myosuroides (ALOMY); test: as above
Method in brief: as §1

[10] = tested on: Lolium perenne (LOLPE); test: as above
Method in brief: as §1

| Structure (SMILES) | SETFA POST percentage damage (five point scale) [1] | AVEFA POST percentage damage (five point scale) [2] | ECHCG POST percentage damage (five point scale) [3] | ALOMY POST percentage damage (five point scale) [4] | LOLPE POST percentage damage (five point scale) [5] | AVEFA PRE percentage damage (five point scale) [6] | SETFA PRE percentage damage (five point scale) [7] | ECHCG PRE percentage damage (five point scale) [8] | ALOMY PRE percentage damage (five point scale) [9] | LOLPE PRE percentage damage (five point scale) [10] |
| --- | --- | --- | --- | --- | --- | --- | --- | --- | --- | --- |
| CC#Cc1cc(C)c(C2C(=O)CC3(CCN(C(=O)C4CC(C)=NO4)CC3)CC2=O)c(C)c1 (centres unmarked) [Compound A187] | 5 (5=80-100%) | 5 (5=80-100%) | 5 (5=80-100%) | 5 (5=80-100%) | 5 (5=80-100%) | 5 (5=80-100%) | 5 (5=80-100%) | 5 (5=80-100%) | 4 (4=60-79%) | 5 (5=80-100%) |
| CC#Cc1cc(C)c(C2C(=O)CC3(CCN(C(=O)c4ccc(C#N)nc4)CC3)CC2=O)c(C)c1 [Compound A191] | 5 (5=80-100%) | 5 (5=80-100%) | 5 (5=80-100%) | 5 (5=80-100%) | 5 (5=80-100%) | 4 (4=60-79%) | 5 (5=80-100%) | 5 (5=80-100%) | 2 (2=20-39%) | 5 (5=80-100%) |
| CC#Cc1cc(C)c(C2C(=O)CC3(CCN(C(=O)c4cnccc4C#N)CC3)CC2=O)c(C)c1 [Compound A192] | 5 (5=80-100%) | 5 (5=80-100%) | 5 (5=80-100%) | 5 (5=80-100%) | 5 (5=80-100%) | 3 (3=40-59%) | 5 (5=80-100%) | 5 (5=80-100%) | 3 (3=40-59%) | 5 (5=80-100%) |
| CC#Cc1cc(C)c(C2C(=O)CC3(CCN(C(=O)CCCOC)CC3)CC2=O)c(C)c1 [Compound A193] | 5 (5=80-100%) | 5 (5=80-100%) | 5 (5=80-100%) | 5 (5=80-100%) | 5 (5=80-100%) | 5 (5=80-100%) | 5 (5=80-100%) | 5 (5=80-100%) | 5 (5=80-100%) | 5 (5=80-100%) |
| CC#Cc1cc(C)c(C2C(=O)CC3(CCN(C(=O)Cc4csc(C(F)F)n4)CC3)CC2=O)c(C)c1 [Compound A194] | 5 (5=80-100%) | 5 (5=80-100%) | 5 (5=80-100%) | 4 (4=60-79%) | 5 (5=80-100%) | 5 (5=80-100%) | 5 (5=80-100%) | 5 (5=80-100%) | 4 (4=60-79%) | 5 (5=80-100%) |

Source: patent US12043599B2, “Herbicidal compounds” (SYNGENTA PARTICIPATIONS AG, priority 2018, dated 2024)
